Experimental data from ChEMBL document CHEMBL1201862, “PubChem BioAssay data set” (2004).
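Five compound concentrations were applied to cells in 96-well plates for 48 hours; endpoints were derived by simple linear interpolation of the resulting dose-response curve. GI50: concentration for 50% inhibition of growth.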 Activity calls are given as the source filed them. No stated cut-off is given here; in the data, active = GI50 up to about 1.1 µM and inactive = higher.

Experiments:
Experiment in all cases: NCI tumour cell line growth inhibition, 48 h
[1] = system: A498
[2] = system: OVCAR-5
[3] = system: SNB-19
[4] = system: SN12C
[5] = system: IGROV-1
[6] = system: 786-0
[7] = system: SR
[8] = system: SK-OV-3
[9] = system: ACHN
[10] = system: OVCAR-4
[11] = system: NCI/ADR-RES
[12] = system: COLO 205
[13] = system: MOLT-4
[14] = system: T47D
[15] = system: SW-620
[16] = system: SNB-75
[17] = system: EKVX
[18] = system: HT-29
[19] = system: MCF7

Structure (SMILES) | GI50 [1] | GI50 [2] | GI50 [3] | GI50 [4] | GI50 [5] | GI50 [6] | GI50 [7] | GI50 [8] | GI50 [9] | GI50 [10] | GI50 [11] | GI50 [12] | GI50 [13] | GI50 [14] | GI50 [15] | GI50 [16] | GI50 [17] | GI50 [18] | GI50 [19]
CC(=O)CSCc1ccccn1 | 51.1 µM (inactive) | > 100 µM (inactive) | 50.9 µM (inactive) | 75.5 µM (inactive) | 37.8 µM (inactive) | 97.1 µM (inactive) | 21.5 µM (inactive) | > 100 µM (inactive) | 61.5 µM (inactive) | 83.8 µM (inactive) | > 100 µM (inactive) | > 100 µM (inactive) | 20.7 µM (inactive) | 34.8 µM (inactive) | 45.8 µM (inactive) | 29.4 µM (inactive) | 77.1 µM (inactive) | 51.3 µM (inactive) | –
CCN(CC)Cc1cc(Nc2c3ccccc3nc3c2[nH]c2ccccc23)cc(CN(CC)CC)c1O | 1.53 µM (inactive) | 2.01 µM (inactive) | 1.21 µM (inactive) | 0.412 µM (active) | 0.861 µM (active) | 0.216 µM (active) | – | 3.25 µM (inactive) | 0.634 µM (active) | 0.468 µM (active) | – | 0.366 µM (active) | – | 2.67 µM (inactive) | 0.266 µM (active) | 1.22 µM (inactive) | 1.45 µM (inactive) | 0.35 µM (active) | 1.34 µM (inactive)
CCOC(=O)c1cc2c([N+](=O)[O-])c(N)ccc2s1 | > 100 µM (inactive) | > 100 µM (inactive) | > 100 µM (inactive) | > 100 µM (inactive) | > 100 µM (inactive) | > 100 µM (inactive) | – | > 100 µM (inactive) | > 100 µM (inactive) | > 100 µM (inactive) | > 100 µM (inactive) | > 100 µM (inactive) | > 100 µM (inactive) | > 100 µM (inactive) | > 100 µM (inactive) | 72.3 µM (inactive) | 57 µM (inactive) | > 100 µM (inactive) | > 100 µM (inactive)
C#CC[C@@H]1C(=O)N(Cc2ccc(OC)cc2)[C@@H](C(C)C)C(=O)N1Cc1ccc(OC)cc1 | 36 µM (inactive) | 67.5 µM (inactive) | 64.4 µM (inactive) | 53 µM (inactive) | > 100 µM (inactive) | 44.9 µM (inactive) | – | > 100 µM (inactive) | 45.4 µM (inactive) | 74 µM (inactive) | 31.2 µM (inactive) | 19.4 µM (inactive) | 15.1 µM (inactive) | 16.4 µM (inactive) | 40.5 µM (inactive) | 24 µM (inactive) | 28.4 µM (inactive) | 26.8 µM (inactive) | 19.8 µM (inactive)
CN(C)c1ccc(/N=N/c2ccccn2)cc1 | 22.1 µM (inactive) | > 100 µM (inactive) | 58.6 µM (inactive) | 41.5 µM (inactive) | 5.93 µM (inactive) | 49 µM (inactive) | – | 38.7 µM (inactive) | 31.8 µM (inactive) | 36.2 µM (inactive) | 5.04 µM (inactive) | 6.58 µM (inactive) | 4.17 µM (inactive) | 11.2 µM (inactive) | 17.5 µM (inactive) | 52.1 µM (inactive) | 11.9 µM (inactive) | 11.1 µM (inactive) | 3.18 µM (inactive)
COC(=O)c1c(C)cccc1/C=C1/Cc2c(C)cccc2C1=O | 88.9 µM (inactive) | > 100 µM (inactive) | – | > 100 µM (inactive) | > 100 µM (inactive) | 88.7 µM (inactive) | – | > 100 µM (inactive) | 86.7 µM (inactive) | > 100 µM (inactive) | > 100 µM (inactive) | > 10 µM (inactive) | > 100 µM (inactive) | 50.8 µM (inactive) | > 100 µM (inactive) | > 100 µM (inactive) | > 100 µM (inactive) | > 100 µM (inactive) | 8.97 µM (inactive)
COc1cccc(/C=C2\S/C(=N/Nc3nc(C)c(C)s3)NC2=O)c1O | > 100 µM (inactive) | > 100 µM (inactive) | > 100 µM (inactive) | > 100 µM (inactive) | 34.3 µM (inactive) | > 100 µM (inactive) | – | > 100 µM (inactive) | > 100 µM (inactive) | > 100 µM (inactive) | > 100 µM (inactive) | > 100 µM (inactive) | 49.3 µM (inactive) | 19 µM (inactive) | > 100 µM (inactive) | > 100 µM (inactive) | 37 µM (inactive) | > 100 µM (inactive) | > 100 µM (inactive)
C=CC1(C)CCC2C(=CCC3C(C)(COC4OC(C(=O)O)C(O)C(O)C4O)C(O)CCC23C)C1.C=CC1(C)CCC2C(=CCC3C2(C)CC(O)C(O)C3(C)COC2OC(C(=O)O)C(O)C(O)C2O)C1 (centres undefined) | > 100 µM (inactive) | > 100 µM (inactive) | > 100 µM (inactive) | > 100 µM (inactive) | > 100 µM (inactive) | > 100 µM (inactive) | 44.6 µM (inactive) | > 100 µM (inactive) | > 100 µM (inactive) | > 100 µM (inactive) | – | > 100 µM (inactive) | 13.3 µM (inactive) | > 100 µM (inactive) | > 100 µM (inactive) | > 100 µM (inactive) | > 100 µM (inactive) | > 100 µM (inactive) | 71 µM (inactive)
CN(C)CCCN1C(=S)N(CCCN(C)C)c2c3ccccc3nc3c([N+](=O)[O-])ccc1c23 | 7.71 µM (inactive) | 13.8 µM (inactive) | 8.67 µM (inactive) | 4.15 µM (inactive) | 3.06 µM (inactive) | 4.82 µM (inactive) | – | 15.5 µM (inactive) | 4.06 µM (inactive) | 11.5 µM (inactive) | 6.95 µM (inactive) | 1.71 µM (inactive) | 5.58 µM (inactive) | 15 µM (inactive) | 3.05 µM (inactive) | 7.46 µM (inactive) | 5.5 µM (inactive) | 2.94 µM (inactive) | 5.47 µM (inactive)
CN(C)Cc1cc(/N=N/c2ccccc2)cc(CN(C)C)c1O | 97.3 µM (inactive) | > 100 µM (inactive) | > 100 µM (inactive) | > 100 µM (inactive) | 85.7 µM (inactive) | 36.2 µM (inactive) | > 100 µM (inactive) | > 100 µM (inactive) | > 100 µM (inactive) | 35.8 µM (inactive) | 43 µM (inactive) | 20.5 µM (inactive) | 45.8 µM (inactive) | > 100 µM (inactive) | > 100 µM (inactive) | > 100 µM (inactive) | > 100 µM (inactive) | 73.8 µM (inactive) | –
CCCOc1ccc2sc(NC(=O)c3cc([N+](=O)[O-])cc([N+](=O)[O-])c3)nc2c1 | 23.7 µM (inactive) | > 100 µM (inactive) | 42.5 µM (inactive) | 42.1 µM (inactive) | 10.6 µM (inactive) | 52.2 µM (inactive) | – | 36.5 µM (inactive) | 48.4 µM (inactive) | 18.8 µM (inactive) | 22.6 µM (inactive) | 54.1 µM (inactive) | 36.3 µM (inactive) | 53.2 µM (inactive) | 31 µM (inactive) | 30.5 µM (inactive) | 19.4 µM (inactive) | 69.8 µM (inactive) | 40.2 µM (inactive)
Cc1nn(C(=O)Cc2ccccc2)c2c1C(c1ccc(Cl)cc1)SC(=N)N2 (centres undefined) | > 100 µM (inactive) | – | – | > 100 µM (inactive) | > 100 µM (inactive) | > 100 µM (inactive) | > 100 µM (inactive) | > 100 µM (inactive) | > 100 µM (inactive) | – | – | > 100 µM (inactive) | > 100 µM (inactive) | > 100 µM (inactive) | > 100 µM (inactive) | 17.2 µM (inactive) | > 100 µM (inactive) | > 100 µM (inactive) | > 100 µM (inactive)
CCOC(=O)/C(C#N)=C/c1ccc2c(-c3c(OCC)ccc4cc(/C=C(\C#N)C(=O)OCC)ccc34)c(OCC)ccc2c1 | > 100 µM (inactive) | > 100 µM (inactive) | > 100 µM (inactive) | > 100 µM (inactive) | > 100 µM (inactive) | > 100 µM (inactive) | – | > 100 µM (inactive) | > 100 µM (inactive) | > 100 µM (inactive) | > 100 µM (inactive) | > 100 µM (inactive) | > 100 µM (inactive) | > 100 µM (inactive) | > 100 µM (inactive) | > 100 µM (inactive) | > 100 µM (inactive) | > 100 µM (inactive) | > 100 µM (inactive)
COc1cc2nc3n(c(=O)c2cc1OC)-c1ccc([N+](=O)[O-])cc1C3=O | 17.5 µM (inactive) | > 100 µM (inactive) | > 100 µM (inactive) | 66.7 µM (inactive) | 26.1 µM (inactive) | 56.8 µM (inactive) | – | > 100 µM (inactive) | 39.2 µM (inactive) | 15 µM (inactive) | 89.5 µM (inactive) | > 100 µM (inactive) | 27.3 µM (inactive) | 0.891 µM (active) | 11.3 µM (inactive) | 85.1 µM (inactive) | 36.9 µM (inactive) | > 100 µM (inactive) | 11.9 µM (inactive)
C/C1=C\[C@H](C)C[C@H](C)OC(=O)[C@H](C)NC(=O)[C@@H](Cc2ccc(O)c(Br)c2)N(C)C(=O)[C@H](C)NC(=O)[C@@H](C)C1 | 0.0149 µM (active) | 10.7 µM (inactive) | 0.184 µM (active) | 0.401 µM (active) | 0.0152 µM (active) | 0.00752 µM (active) | – | 0.0495 µM (active) | 0.0326 µM (active) | 0.0631 µM (active) | 0.126 µM (active) | 0.00728 µM (active) | 0.3 µM (active) | 0.282 µM (active) | 0.00385 µM (active) | 0.0184 µM (active) | 0.0652 µM (active) | 0.00783 µM (active) | 0.0479 µM (active)
